One assay has as its system Del19/T790M/C797S EGFR. The assay is described as follows: EGFR degradation HTRF assay in H1975-clone #28 (DTC) cells. Conditions: H1975 # 28 DTC (Del19/T790M/C797S), 16h treatment; for DC50: HTRF; for Dmax (%): maximum percentage of degradation. Format: cell-based. In short, it runs like this:
(§1)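 Cells carrying only lentiviral mutant EGFR, since endogenous alleles were removed by CRISPR, received compounds on day 2 for 16 h. Final concentrations ran from 10 uM down in 5-fold steps over 8 doses. After lysis, EGFR levels were quantified by HTRF and DC50 derived by curve fitting.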
On the technique in general: Time-resolved FRET reads energy transfer from a long-lived donor to a nearby acceptor.

The next assay addresses T1, L858R/T790M/C797S EGFR (Homo sapiens, UniProt P00533, C797S/L858R/T790M).
T1 construct: expressed in transfected cells; host or cells: H1975 clone #25 (lentiviral over-expression, endogenous EGFR knocked out by sgRNA)
Description: EGFR degradation HTRF assay in H1975-clone #25 (LTC) cells. Format: cell-based. Conditions: 16h treatment; for DC50: H1975 # 25-LTC (L858R/T790M/C797S), HTRF; for Dmax: NCI-H1975, H1975 # 25-LTC (L858R/T790M/C797S), maximum percentage of degradation. The procedure, abridged:
as §1

T1 sequence (P00533 25-1210 T790M/C797S/L858R): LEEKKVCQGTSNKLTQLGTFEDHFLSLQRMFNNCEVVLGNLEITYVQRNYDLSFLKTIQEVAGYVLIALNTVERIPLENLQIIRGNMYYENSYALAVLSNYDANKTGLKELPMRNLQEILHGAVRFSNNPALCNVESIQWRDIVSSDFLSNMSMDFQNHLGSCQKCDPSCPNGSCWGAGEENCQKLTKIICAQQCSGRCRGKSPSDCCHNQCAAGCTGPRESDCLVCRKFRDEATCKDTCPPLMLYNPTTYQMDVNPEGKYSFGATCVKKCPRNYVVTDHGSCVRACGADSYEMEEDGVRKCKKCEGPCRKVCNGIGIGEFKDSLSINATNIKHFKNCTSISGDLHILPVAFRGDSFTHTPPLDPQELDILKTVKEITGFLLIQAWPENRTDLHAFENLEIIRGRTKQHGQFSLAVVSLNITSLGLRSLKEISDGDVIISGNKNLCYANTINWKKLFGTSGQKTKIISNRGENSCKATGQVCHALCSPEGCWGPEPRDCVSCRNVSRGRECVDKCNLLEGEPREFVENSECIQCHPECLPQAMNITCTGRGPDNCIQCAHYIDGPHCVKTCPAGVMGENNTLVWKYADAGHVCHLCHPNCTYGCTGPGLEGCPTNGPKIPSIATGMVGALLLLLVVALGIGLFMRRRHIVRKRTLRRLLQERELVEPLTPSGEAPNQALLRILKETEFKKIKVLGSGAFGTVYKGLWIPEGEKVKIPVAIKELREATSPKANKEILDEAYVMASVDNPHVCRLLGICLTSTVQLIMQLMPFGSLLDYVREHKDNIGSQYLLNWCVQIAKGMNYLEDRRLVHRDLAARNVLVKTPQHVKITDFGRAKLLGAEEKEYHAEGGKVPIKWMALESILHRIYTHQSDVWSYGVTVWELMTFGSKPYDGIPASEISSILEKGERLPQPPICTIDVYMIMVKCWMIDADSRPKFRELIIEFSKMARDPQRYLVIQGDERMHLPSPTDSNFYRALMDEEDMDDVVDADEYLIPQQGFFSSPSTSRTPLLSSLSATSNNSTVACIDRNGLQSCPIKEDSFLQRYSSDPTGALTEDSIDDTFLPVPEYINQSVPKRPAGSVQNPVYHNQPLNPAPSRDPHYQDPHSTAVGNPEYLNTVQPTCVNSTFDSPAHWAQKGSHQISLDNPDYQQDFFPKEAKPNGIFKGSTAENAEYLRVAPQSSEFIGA

What is called DC50 is the midpoint of the concentration-degradation curve. A low value points to a more potent degrader. For orientation: Dmax means the greatest extent of degradation seen. For `Cc1cc2cc(n1)-c1cnn(C)c1OCCC[C@@H](C)CN1/C(=N/C2=O)Nc2ccc(C(=O)OC3CCN(CCc4cc(F)c([C@H]5CCC(=O)NC5=O)c(F)c4)CC3)cc21` [Example 313, 1-(4-((R)-2,6-dioxopiperidin-3-yl)-3,5-difluorophenethyl)piperidin-4-yl (R,E)-1^1,2^6,7-trimethyl-3-oxo-5^2,5^3-dihydro-1^1H,5^1H-11-oxa-4-aza-5(2,1)-benzo[d]imidazola-2(2,4)-pyridina-1(4,5)-pyrazolacycloundecaphane-5^6-carboxylate], in the assay on Del19/T790M/C797S EGFR, it took 967 pM to reach half-maximal degradation (DC50) and the “Dmax (%)” value came out at 70.56%. Further, at L858R/T790M/C797S EGFR, it took 1250 pM to reach half-maximal degradation (DC50) and the Dmax amounted to 81%.
Taken in the same sequence, the figures for `Cc1cc2cc(n1)-c1cnn(C)c1OCCC[C@@H](C)CN1/C(=N/C2=O)Nc2ccc(C(=O)N3CC[C@H](N(C)CCc4cc(F)c([C@H]5CCC(=O)NC5=O)c(F)c4)C3)cc21` [Example 297, (R)-3-(2,6-difluoro-4-(2-(methyl((S)-1-((R,E)-1^1,2^6,7-trimethyl-3-oxo-5^2,5^3-dihydro-1^1H,5^1H-11-oxa-4-aza-5(2,1)-benzo[d]imidazola-2(2,4)-pyridina-1(4,5)-pyrazolacycloundecaphane-5^6-carbonyl)pyrrolidin-3-yl)amino)ethyl)phenyl)piperidine-2,6-dione] were 292 pM, 79.64%, 432 pM and 91.7%.
Consider `Cc1cc2cc(n1)-c1cnn(C)c1OCCC[C@@H](C)CN1/C(=N/C2=O)Nc2ccc(C(=O)N3CCN(C(=O)[C@@H]4CCN(c5cc(F)c([C@H]6CCC(=O)NC6=O)c(F)c5)C4)CC3)cc21` [Example 96, (R)-3-(2,6-difluoro-4-((R)-3-(4-((R,E)-1^1,2^6,7-trimethyl-3-oxo-5^2,5^3-dihydro-1^1H,5^1H-11-oxa-4-aza-5(2,1)-benzo[d]imidazola-2(2,4)-pyridina-1(4,5)-pyrazolacycloundecaphane-5^6-carbonyl)piperazine-1-carbonyl)pyrrolidin-1-yl)phenyl)piperidine-2,6-dione], for which, in the assay on Del19/T790M/C797S EGFR, half-maximal degradation (DC50) was put at 400 pM and the “Dmax (%)” value is 84.3%. At L858R/T790M/C797S EGFR, it took 600 pM to reach half-maximal degradation (DC50) and the Dmax is 87.8%.
For `Cc1cc2cc(n1)-c1cnn(C)c1OCCC[C@@H](C)CN1/C(=N/C2=O)Nc2ccc(CN3CCC4(CC3)CN(C(=O)[C@H]3CN(c5cc(F)c([C@H]6CCC(=O)NC6=O)c(F)c5)CC3(C)C)C4)cc21` [Example 26, (R)-3-(4-((R)-3,3-dimethyl-4-(7-(((R,E)-1^1,2^6,7-trimethyl-3-oxo-5^2,5^3-dihydro-1^1H,5^1H-11-oxa-4-aza-5(2,1)-benzo[d]imidazola-2(2,4)-pyridina-(4,5)-pyrazolacycloundecaphane-5^6-yl)methyl)-2,7-diazaspiro[3.5]nonane-2-carbonyl)pyrrolidin-1-yl)-2,6-difluorophenyl)piperidine-2,6-dione], in the assay with Del19/T790M/C797S EGFR, it took 2400 pM to reach half-maximal degradation (DC50) and the “Dmax (%)” value is 81.2%. Also, at L858R/T790M/C797S EGFR, the DC50 is 2000 pM and the Dmax worked out at 93.7%.
On to `COCc1cc2c(cc1N1CCN(C3CCN(c4cc(F)c([C@H]5CCC(=O)NC5=O)c(F)c4)CC3)CC1)N1C[C@H](C)CCCOc3c(cnn3C)-c3cc(cc(C)n3)C(=O)/N=C/1N2` [Example 390, (R)-3-(2,6-difluoro-4-(4-(4-((R,E)-5^5-(methoxymethyl)-1^1,2^6,7-trimethyl-3-oxo-5^2,5^3-dihydro-1^1H,5^1H-11-oxa-4-aza-5(2,1)-benzo[d]imidazola-2(2,4)-pyridina-1(4,5)-pyrazolacycloundecaphane-5^6-yl)piperazin-1-yl)piperidin-1-yl)phenyl)piperidine-2,6-dione], for which, in the assay on Del19/T790M/C797S EGFR, it took 1690 pM to reach half-maximal degradation (DC50) and the “Dmax (%)” value is 73.87%. Besides, at L858R/T790M/C797S EGFR, the DC50 worked out at 2490 pM and the Dmax turned out to be 87.7%.
For the molecule `CCN(C(=O)c1ccc2c(c1)N1C[C@H](C)CCCOc3c(cnn3C)-c3cc(cc(C)n3)C(=O)/N=C/1N2)C1CCN(C2CCN(c3cc(F)c([C@H]4CCC(=O)NC4=O)c(F)c3)CC2)CC1` [Example 288, (R,E)-N-(1′-(4-((R)-2,6-dioxopiperidin-3-yl)-3,5-difluorophenyl)-[1,4′-bipiperidin]-4-yl)-N-ethyl-1^1, 2^6,7-trimethyl-3-oxo-5^2,5^3-dihydro-1^1H,5^1H-11-oxa-4-aza-5(2,1)-benzo[d]imidazola-2(2,4)-pyridina-1(4,5)-pyrazolacycloundecaphane-5^6-carboxamide], in the assay with Del19/T790M/C797S EGFR, half-maximal degradation (DC50) was put at 488 pM and the “Dmax (%)” value came to 79.62%. At L858R/T790M/C797S EGFR, this molecule registered a 50% degradation concentration (DC50) of 662 pM and a Dmax of 92.8%.
Regarding `Cc1cc2cc(n1)-c1cnn(C)c1OCCC[C@@H](C)CN1/C(=N/C2=O)Nc2ccc(CN3CCN(C(=O)C4CCN(c5cc(F)c([C@H]6CCC(=O)NC6=O)c(F)c5)CC4)CC3)cc21` [Example 162, (R)-3-(2,6-difluoro-4-(4-(4-(((R,E)-1^1,2^6,7-trimethyl-3-oxo-5^2, 5^3-dihydro-1^1H,5^1H-11-oxa-4-aza-5(2,1)-benzo[d]imidazola-2(2,4)-pyridina-1(4,5)-pyrazolacycloundecaphane-5^6-yl)methyl)piperazine-1-carbonyl)piperidin-1-yl)phenyl)piperidine-2,6-dione], in the assay with Del19/T790M/C797S EGFR, half-maximal degradation (DC50) was put at 557 pM and the “Dmax (%)” value is on record as 71.45%. On L858R/T790M/C797S EGFR, this molecule showed a DC50 of 598 pM and a Dmax of 79.1%.
On to `COC[C@@H]1CN(Cc2ccc3c(c2)N2C[C@H](C)CCCOc4c(cnn4C)-c4cc(cc(C)n4)C(=O)/N=C/2N3)CCN1C(=O)[C@@H]1CCN(c2cc(F)c([C@H]3CCC(=O)NC3=O)c(F)c2)C1` [Example 202, (R)-3-(2,6-difluoro-4-((R)-3-((S)-2-(methoxymethyl)-4-(((R,E)-1^1,2^6,7-trimethyl-3-oxo-5^2,5^3-dihydro-1^1H,5^1H-li-oxa-4-aza-5(2,1)-benzo[d]imidazola-2(2,4)-pyridina-(4,5)-pyrazolacycloundecaphane-5^6-yl)methyl)piperazine-1-carbonyl)pyrrolidin-1-yl)phenyl)piperidine-2,6-dione], for which, in the assay on Del19/T790M/C797S EGFR, it took 1320 pM to reach half-maximal degradation (DC50) and the “Dmax (%)” value amounted to 72.07%. On L858R/T790M/C797S EGFR, this molecule showed a DC50 of 890 pM and a Dmax of 78.8%.
With `Cc1cc2cc(n1)-c1cnn(C)c1OCCC[C@@H](C)CN1/C(=N/C2=O)Nc2ccc(N3CCN(C4CCN(c5ccc(C6CCC(=O)NC6=O)nc5C)CC4)[C@@H](CC#N)C3)cc21` (stereo partly drawn) [Example 456, 2-((2S)-1-(1-(6-(2,6-dioxopiperidin-3-yl)-2-methylpyridin-3-yl)piperidin-4-yl)-4-((R,E)-1^1,2^6,7-trimethyl-3-oxo-5^2,5^3-dihydro-1^1H,5^1H-11-oxa-4-aza-5(2,1)-benzo[d]imidazola-2(2,4)-pyridina-1(4,5)-pyrazolacycloundecaphane-5^6-yl)piperazin-2-yl)acetonitrile], in the assay with Del19/T790M/C797S EGFR, the half-maximal degradation concentration (DC50) amounted to 542 pM and the “Dmax (%)” value was found to be 84.5%. Besides, on L858R/T790M/C797S EGFR, it took 676 pM to reach half-maximal degradation (DC50) and the Dmax was 93.2%.
Consider `Cc1cc2cc(n1)-c1cnn(C)c1OCCC[C@@H](C)CN1/C(=N/C2=O)Nc2ccc(N3CCC(N4CCN(c5cc(F)c([C@H]6CCC(=O)NC6=O)c(F)c5)CC4)CC3)cc21` [Example 387, (R)-3-(2,6-difluoro-4-(4-(1-((R,E)-1^1,2^6,7-trimethyl-3-oxo-5^2,53-dihydro-1^1H,5^1H-11-oxa-4-aza-5(2,1)-benzo[d]imidazola-2(2,4)-pyridina-1(4,5)-pyrazolacycloundecaphane-5^6-yl)piperidin-4-yl)piperazin-1-yl)phenyl)piperidine-2,6-dione], for which, in the assay on Del19/T790M/C797S EGFR, the half-maximal degradation concentration (DC50) was 782 pM and the “Dmax (%)” value was determined as 76.00%. On L858R/T790M/C797S EGFR, this molecule came in with a DC50 of 1460 pM and a maximal degradation (Dmax) of 87.2%.
The corresponding values for `Cc1cc2cc(n1)-c1cnn(C)c1OCCC[C@@H](C)CN1/C(=N/C2=O)Nc2ccc(N(C)C3CN(C4CCN(c5cc(F)c([C@H]6CCC(=O)NC6=O)c(F)c5)CC4)C3)cc21` [Example 438, (R)-3-(2,6-difluoro-4-(4-(3-(methyl((R,E)-1^1,2^6,7-trimethyl-3-oxo-5^2,5^3-dihydro-1^1H,5^1H-11-oxa-4-aza-5(2,1)-benzo[d]imidazola-2(2,4)-pyridina-1(4,5)-pyrazolacycloundecaphane-5^6-yl)amino)azetidin-1-yl)piperidin-1-yl)phenyl)piperidine-2,6-dione] are 983 pM, 72.51%, 964 pM and 85.6%.
As to `Cc1cc2cc(n1)-c1cnn(C)c1OCCC[C@@H](C)CN1/C(=N/C2=O)Nc2ccc(C(=O)N(C)C3C[C@H]4CN(CCc5cc(F)c([C@H]6CCC(=O)NC6=O)c(F)c5)C[C@@H]4C3)cc21` [Example 293, (R,E)-N—((3aR,6aR)-2-(4-((R)-2,6-dioxopiperidin-3-yl)-3,5-difluorophenethyl)octahydrocyclopenta[c]pyrrol-5-yl)-N,1^1,2^6,7-tetramethyl-3-oxo-5^2,5^1-dihydro-1^1H,5^1H-11-oxa-4-aza-5(2,1)-benzo[d]imidazola-2(2,4)-pyridina-1(4,5)-pyrazolacycloundecaphane-5^6-carboxamide], in the assay with Del19/T790M/C797S EGFR, the DC50 is 997 pM and the “Dmax (%)” value came to 75.49%. Moreover, at L858R/T790M/C797S EGFR, half-maximal degradation (DC50) was put at 1560 pM and the Dmax came to 86.3%.
